Columns and labels:
[1] = target: T1, Fatty-acid amide hydrolase 1 (Rattus norvegicus, UniProt P97612); assay: Inhibition of FAAH in Sprague-Dawley rat brain homogenates preincubated for 10 mins followed by addition of substrate measured after 30 mins by liquid scintillation counting; type: tissue-based
T1 sequence (P97612 whole entry): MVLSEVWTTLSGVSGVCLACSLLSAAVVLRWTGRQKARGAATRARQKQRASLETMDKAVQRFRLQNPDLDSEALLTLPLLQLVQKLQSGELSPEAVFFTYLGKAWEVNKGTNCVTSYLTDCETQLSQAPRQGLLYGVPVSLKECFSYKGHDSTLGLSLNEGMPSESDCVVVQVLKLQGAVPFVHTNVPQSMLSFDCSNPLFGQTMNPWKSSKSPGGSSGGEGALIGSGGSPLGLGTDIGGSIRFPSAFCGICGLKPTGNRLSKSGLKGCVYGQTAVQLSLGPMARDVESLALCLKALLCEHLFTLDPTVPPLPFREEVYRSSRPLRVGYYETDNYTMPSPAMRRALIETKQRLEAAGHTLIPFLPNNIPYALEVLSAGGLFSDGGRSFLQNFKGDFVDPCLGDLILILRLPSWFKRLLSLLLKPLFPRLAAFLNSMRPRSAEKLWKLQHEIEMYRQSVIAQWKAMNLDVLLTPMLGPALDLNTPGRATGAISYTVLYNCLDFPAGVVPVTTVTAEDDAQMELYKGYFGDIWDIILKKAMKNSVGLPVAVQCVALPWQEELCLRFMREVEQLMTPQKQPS

[2] = target: T2, Prostaglandin G/H synthase 1 (Ovis aries, UniProt P05979); assay: Inhibition of ovine COX1 assessed as production of PGF2-alpha preincubated with compound followed by the addition of 5 uM arachidonic acid as substrate by enzyme immunoassay
T2 sequence (P05979 whole entry): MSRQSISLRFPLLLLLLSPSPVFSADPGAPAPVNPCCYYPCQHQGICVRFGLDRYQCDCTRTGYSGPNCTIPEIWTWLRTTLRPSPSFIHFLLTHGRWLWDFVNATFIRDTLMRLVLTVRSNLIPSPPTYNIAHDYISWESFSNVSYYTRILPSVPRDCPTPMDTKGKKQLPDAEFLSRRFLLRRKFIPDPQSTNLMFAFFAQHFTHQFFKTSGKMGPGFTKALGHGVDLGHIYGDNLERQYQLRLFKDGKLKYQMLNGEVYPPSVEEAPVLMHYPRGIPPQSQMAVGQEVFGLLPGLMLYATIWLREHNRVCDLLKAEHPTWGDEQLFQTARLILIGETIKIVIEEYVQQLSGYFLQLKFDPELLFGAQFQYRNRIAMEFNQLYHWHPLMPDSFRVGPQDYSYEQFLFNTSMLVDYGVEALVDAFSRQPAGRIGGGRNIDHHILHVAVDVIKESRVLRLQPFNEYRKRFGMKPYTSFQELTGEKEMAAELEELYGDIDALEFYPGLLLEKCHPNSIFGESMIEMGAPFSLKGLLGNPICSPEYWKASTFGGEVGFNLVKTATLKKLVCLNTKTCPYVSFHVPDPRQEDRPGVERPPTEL

[3] = target: T3, Prostaglandin G/H synthase 2 (Homo sapiens, UniProt P35354); assay: Inhibition of recombinant human COX2 assessed as production of PGF2-alpha preincubated with compound followed by the addition of 5 uM arachidonic acid as substrate by enzyme immunoassay
T3 sequence (P35354 whole entry): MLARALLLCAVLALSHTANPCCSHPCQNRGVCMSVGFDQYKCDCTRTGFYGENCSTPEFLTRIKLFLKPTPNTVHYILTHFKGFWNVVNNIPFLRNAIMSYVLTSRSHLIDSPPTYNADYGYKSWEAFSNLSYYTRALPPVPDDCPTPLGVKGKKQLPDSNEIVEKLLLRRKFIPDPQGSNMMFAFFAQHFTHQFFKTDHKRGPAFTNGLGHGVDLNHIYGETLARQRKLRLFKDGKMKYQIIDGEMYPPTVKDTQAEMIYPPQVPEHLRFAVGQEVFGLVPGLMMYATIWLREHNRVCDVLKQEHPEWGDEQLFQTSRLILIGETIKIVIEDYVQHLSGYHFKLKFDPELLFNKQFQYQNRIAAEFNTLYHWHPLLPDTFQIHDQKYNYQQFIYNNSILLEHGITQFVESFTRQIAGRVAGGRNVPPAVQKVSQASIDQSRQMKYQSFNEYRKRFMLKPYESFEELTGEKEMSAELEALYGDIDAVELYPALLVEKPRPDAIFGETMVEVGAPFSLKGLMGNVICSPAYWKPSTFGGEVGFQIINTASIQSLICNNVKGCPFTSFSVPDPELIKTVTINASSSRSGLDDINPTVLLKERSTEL

## CCCCCCNC(=O)Oc1cccc(-c2ccc(C(C)C(=O)O)cc2N)c1 (racemic)
[1]
  IC50: 49 nM
[2]
  IC50: 220 nM
[3]
  IC50: 12.1 µM

## CCCCCCNC(=O)Oc1cccc(-c2ccc(C(C)C(=O)O)cc2C(F)(F)F)c1 (racemic)
[1]
  IC50: 5 nM
[2]
  IC50: 10 nM
[3]
  IC50: 0.2 µM

## CCCCCCNC(=O)Oc1cccc(-c2ccc(C(C)CO)cc2F)c1 (racemic)
[1]
  IC50: 3 nM
[3]
  IC50: > 100 µM

## CCCCCCNC(=O)Oc1cccc(-c2ccc(C(C)C(=O)O)cc2C)c1 (racemic)
[1]
  IC50: 10 nM
[2]
  IC50: 11 nM
[3]
  IC50: 1.4 µM

## CC(C(=O)O)c1ccc(-c2cccc(OC(=O)NC3CC3)c2)c(F)c1 (racemic)
[1]
  IC50: > 100000 nM
[2]
  IC50: 5400 nM
[3]
  IC50: 74.3 µM

## CCCCCCNC(=O)Oc1cccc(-c2ccc(C(C)C(=O)O)cc2O)c1 (racemic)
[1]
  IC50: 35 nM
[2]
  IC50: 650 nM
[3]
  IC50: 13 µM

## CC(C(=O)O)c1ccc(-c2ccccc2)c(F)c1 (stereo unspecified) [FLURBIPROFEN]
[1]
  IC50: > 100000 nM

## CC(C(=O)O)c1ccc(-c2cccc(OC(=O)NCC3CCCCC3)c2)c(F)c1 (racemic)
[3]
  IC50: > 100 µM

## CC(C(=O)O)c1ccc(-c2cccc(OC(=O)NC3CCCC3)c2)c(F)c1 (racemic)
[3]
  IC50: > 100 µM

## CCCCNC(=O)Oc1cccc(-c2ccc(C(C)C(=O)O)cc2F)c1 (racemic)
[3]
  IC50: > 100 µM

## CCCCCCNC(=O)Oc1cccc(-c2ccc(C(=O)O)cc2F)c1
[1]
  IC50: 85 nM
[2]
  IC50: > 100000 nM
[3]
  IC50: > 100 µM

## CC(C(=O)O)c1ccc(-c2cccc(OC(=O)Nc3ccccc3)c2)c(F)c1 (racemic)
[1]
  IC50: 41200 nM
[2]
  IC50: 270 nM
[3]
  IC50: 2.7 µM

## CCCCCCNC(=O)Oc1cccc(-c2ccc([C@@H](C)C(=O)O)cc2F)c1
[2]
  IC50: 4000 nM

## CC(C)NC(=O)Oc1cccc(-c2ccc(C(C)C(=O)O)cc2F)c1 (racemic)
[1]
  IC50: > 100000 nM
[2]
  IC50: 3900 nM
[3]
  IC50: > 100 µM

## CC(C)CNC(=O)Oc1cccc(-c2ccc(C(C)C(=O)O)cc2F)c1 (racemic)
[1]
  IC50: 4100 nM
[3]
  IC50: > 100 µM

## CC(C(=O)O)c1ccc(-c2cccc(OC(=O)NCCc3ccccc3)c2)c(F)c1 (racemic)
[3]
  IC50: > 100 µM

## CCCCCCNC(=O)Nc1cccc(-c2ccc(C(C)C(=O)O)cc2F)c1 (racemic)
[1]
  IC50: 88400 nM
[2]
  IC50: 14 nM
[3]
  IC50: 0.56 µM

## CC(C(=O)O)c1ccc(-c2cccc(OC(=O)NCCCCc3ccccc3)c2)c(F)c1 (racemic)
[3]
  IC50: > 100 µM

## CCCCCCNC(=O)Oc1cccc(-c2ccc(C)cc2F)c1
[1]
  IC50: 26 nM
[2]
  IC50: > 100000 nM
[3]
  IC50: > 100 µM

## NC(=O)c1cccc(-c2cccc(OC(=O)NC3CCCCC3)c2)c1 [URB-597]
[2]
  IC50: > 100000 nM
[3]
  IC50: > 100 µM

## CCCCCCNC(=O)Oc1ccc(-c2ccc(C(C)C(=O)O)cc2F)cc1 (racemic)
[1]
  IC50: 68 nM
[2]
  IC50: > 100000 nM
[3]
  IC50: > 100 µM

## CC(C(=O)O)c1ccc(-c2cccc(OC(=O)NC3CCC3)c2)c(F)c1 (racemic)
[1]
  IC50: 48700 nM
[2]
  IC50: 720 nM
[3]
  IC50: > 100 µM

## CCNC(=O)Oc1cccc(-c2ccc(C(C)C(=O)O)cc2F)c1 (racemic)
[1]
  IC50: > 100000 nM
[2]
  IC50: 2100 nM
[3]
  IC50: > 100 µM

## CCCCCCNC(=O)Oc1cccc(-c2ccc(C(C)C(=O)O)cc2[N+](=O)[O-])c1 (racemic)
[1]
  IC50: 9 nM
[2]
  IC50: 130 nM
[3]
  IC50: 0.93 µM

## CCCCCCNC(=O)Oc1cccc(-c2ccc(C(C)C(=O)OC)cc2F)c1 (racemic)
[1]
  IC50: 52 nM
[2]
  IC50: > 100000 nM
[3]
  IC50: > 100 µM

## CCCCCCNC(=O)Oc1ccccc1-c1ccc(C(C)C(=O)O)cc1F (racemic)
[3]
  IC50: > 100 µM

## CC(C(=O)O)c1ccc(-c2cccc(OC(=O)NCc3ccccc3)c2)c(F)c1 (racemic)
[3]
  IC50: > 100 µM

## CCCCCCNC(=O)Oc1cccc(-c2ccc(C(C)C(=O)O)cc2)c1 (racemic)
[1]
  IC50: 3 nM
[2]
  IC50: 54 nM
[3]
  IC50: 0.69 µM

## CCCNC(=O)Oc1cccc(-c2ccc(C(C)C(=O)O)cc2F)c1 (racemic)
[1]
  IC50: > 100000 nM
[2]
  IC50: 1650 nM
[3]
  IC50: > 100 µM

## CCCCCCNC(=O)Oc1cccc(-c2ccc(C(C)C(=O)O)cc2Cl)c1 (racemic)
[1]
  IC50: 23 nM
[2]
  IC50: 9 nM
[3]
  IC50: 0.73 µM

## CCCCCCCCNC(=O)Oc1cccc(-c2ccc(C(C)C(=O)O)cc2F)c1 (racemic)
[1]
  IC50: 3 nM

## CC(C(=O)O)c1ccc(-c2cccc(OC(=O)NC3CCCCC3)c2)c(F)c1 (racemic)
[3]
  IC50: > 100 µM

Reference: ChEMBL document CHEMBL3774360, “Potent multitarget FAAH-COX inhibitors: Design and structure-activity relationship studies” (Eur J Med Chem, 2016)
